Source: publication PMC2360237, “A phase Ib study of pertuzumab, a recombinant humanised antibody to HER2, and docetaxel in patients with advanced solid tumours” (British Journal of Cancer, 2007)
Where two headings read alike, the source gives them in different places.

How the values were obtained:
[1] = system: patients with advanced cancer; conditions: cited from earlier work
[2] = system: patients with advanced solid tumours
Description: This was a phase Ib, open-label, two-center study. […] Pertuzumab was provided by F Hoffmann-La Roche (Basel, Switzerland). Each 10 ml single-use vial contained 175 mg of pertuzumab formulated in 10 mmol l^−1 L-histidine (pH6.0), 240 mmol l^−1 sucrose, and 0.02% polysorbate 20. The first dose of pertuzumab was given by intravenous infusion over 90 min. […] Initially, the planned dose of pertuzumab was fixed dose at 1050 mg for each dose level. […] The dose of docetaxel was sequentially escalated from 60 to 75 to 100 mg m^−2 as outlined in Table 1. […] Initially, three patients were treated in cohort 1, with the first patient being monitored for at least 2 weeks before additional patients were treated. Escalation to a new dose level was permitted when at least two of three patients had been evaluated for 3 weeks. […] At least six patients were to be treated at the 75 and 100 mg m^−2 dose levels before a recommended phase II dose was declared. […]
The incidence and severity of all adverse events, changes in vital signs, laboratory assessments, physical examination findings, and medical conditions during and after treatment with pertuzumab were assessed at least weekly during the first two cycles, and at least weekly three times thereafter, and graded according to NCI-CTC Version 3. […]

[3] = Pertuzumab serum pharmacokinetics (receptor-binding ELISA, non-compartmental) in phase Ib patients; conditions: for AUC0-last mean (range) / AUC0-∞ mean (range) / Cl mean (range) / Cmax mean (range) / Vss mean (range): serum
Description: (§1) In the first treatment cycle, blood withdrawal for PK analysis was performed 15 and 30 min prior to administration of docetaxel and 15 and 30 min and 1, 2, 4, 8 and 23 h, post administration. Pertuzumab was administered at least 24 h after, on day 2, followed by PK analysis at 15 min and 1.5, 4 and 8 h. In the second cycle, pertuzumab was administered on day 1, immediately followed by the administration of docetaxel and sampling for PK analysis was repeated for both drugs. Plasma samples of docetaxel were analysed using a validated specific liquid chromatography-mass spectrometry (LC-MS/MS) method as described previously ([Agus et al, 2005]). Serum samples were assayed for pertuzumab concentrations using a receptor-binding, enzyme-linked immunosorbent assay. The assay uses immobilised antigen p185^HER2 ECD to capture pertuzumab from serum samples. Bound pertuzumab was detected with mouse anti-human Fc-horseradish peroxidase (Jackson ImmunoResearch Laboratories Inc., West Grove, PA, USA), and tetramethyl benzidine (KPL Inc., Gaithersburg, MD, USA) used as the substrate for colour development to quantify serum pertuzumab against a known standard curve. The assay has a minimum quantifiable concentration of 0.25 μg ml^−1 for pertuzumab in human serum. Pharmacokinetic parameters for docetaxel and pertuzumab were estimated using non-compartmental methods (WinNonLin software version 5.0.1).

[4] = system: refractory ovarian cancer; HRPC; conditions: cited from earlier work
[5] = Docetaxel plasma pharmacokinetics (LC-MS/MS, non-compartmental) alone and with pertuzumab in phase Ib patients; type: in vivo, human; conditions: for AUC(0-inf) / Cmax / half-life: human, plasma, intravenous; for AUC(0-inf): read-out: AUC0-∞ mean (range); for Cmax: read-out: Cmax mean (range); for half-life: read-out: t1/2 mean (range) (converted)
Description: as §1

[6] = pertuzumab 420 mg, cycle 2, n=10, in combination with docetaxel
[7] = pertuzumab 840 mg (loading dose), cycle 1, n=11, in combination with docetaxel
[8] = pertuzumab 1050 mg, cycle 1, n=8, in combination with docetaxel
[9] = pertuzumab 1050 mg, cycle 2, n=7, in combination with docetaxel
[10] = Cohort 1, docetaxel 60 mg m^−2 + pertuzumab 1050 mg, cycle 2, n=6, plasma
[11] = Cohort 1, docetaxel 60 mg m^−2 alone, cycle 1, n=6, plasma
[12] = Cohort 2A, docetaxel 75 mg m^−2 + pertuzumab 420 mg, cycle 2, n=6, plasma
[13] = Cohort 2A, docetaxel 75 mg m^−2 alone, cycle 1, n=6, plasma
[14] = Cohort 3A, docetaxel 100 mg m^−2 + pertuzumab 420 mg, cycle 2, n=4, plasma
[15] = Cohort 3A, docetaxel 100 mg m^−2 alone, cycle 1, n=5, plasma
[16] = 60 mg m^−2, Cohort 1, docetaxel 60 mg m^−2 alone, cycle 1, n=6, plasma
[17] = 75 mg, Cohort 2A, docetaxel 75 mg m^−2 alone, cycle 1, n=6, plasma
[18] = 100 mg, Cohort 3A, docetaxel 100 mg m^−2 alone, cycle 1, n=5, plasma

pertuzumab: fully humanised monoclonal antibody, which acts by blocking the association of HER2 with other HER family members
Terminal elimination half-life ([1]; in vivo): 2–4 weeks
Tolerability ([1]; in vivo): well tolerated
Maximum tolerated dose ([1]; single-agent pertuzumab, phase I studies, not reached, ref Agus et al, 2005): > 15 mg/kg
Recommended phase II dose of pertuzumab in the combination ([2]; in vivo, iv): 420 mg
PK parameters of pertuzumab in the presence of docetaxel compared with single agent ([3]; 1050 mg cycles 1 and 2, 840 mg cycle 1 and 420 mg cycle 2): comparable with single agent values
AUC0-last mean (range) [3, 6]: 1491 (914–2289) μg day ml^−1
AUC0-∞ mean (range) [3, 6]: 2762 (1639–3827) μg day ml^−1
Cl mean (range) [3, 6]: 169 (110–256) ml per day
Cmax mean (range) [3, 6]: 150 (102–233) μg ml^−1
Vss mean (range) [3, 6]: 4233 (2823–7058) ml
AUC0-last mean (range) [3, 7]: 1749 (1214–3083) μg day ml^−1
AUC0-∞ mean (range) [3, 7]: 2796 (1604–5116) μg day ml^−1
Cl mean (range) [3, 7]: 329 (164–524) ml per day
Cmax mean (range) [3, 7]: 255 (169–447) μg ml^−1
AUC0-last mean (range) [3, 8]: 2390 (1733–3355) μg day ml^−1
AUC0-∞ mean (range) [3, 8]: 3951 (2348–4980) μg day ml^−1
Cl mean (range) [3, 8]: 282 (211–447) ml per day
Cmax mean (range) [3, 8]: 301 (143–394) μg ml^−1
Vss mean (range) [3, 8]: 5214 (2975–7036) ml
AUC0-last mean (range) [3, 9]: 3500 (3010–4346) μg day ml^−1
AUC0-∞ mean (range) [3, 9]: 6856 (4521–11426) μg day ml^−1
Cmax mean (range) [3, 9]: 368 (253–463) μg ml^−1
Vss mean (range) [3, 9]: 4672 (3023–6580) ml
Anti-tumour activity ([4]; single-agent pertuzumab, refractory ovarian cancer, ref Gordon et al, 2006): Significant anti-tumour activity
Anti-tumour activity ([4]; single-agent phase II study, HRPC, ref De Bono et al, 2007): no evidence of anti-tumour activity

CC(=O)O[C@@]12CO[C@@H]1C[C@H](O)[C@@]1(C)C(=O)[C@H](O)C3=C(C)[C@@H](OC(=O)[C@H](O)[C@@H](NC(=O)OC(C)(C)C)c4ccccc4)C[C@@](O)([C@@H](OC(=O)c4ccccc4)[C@H]21)C3(C)C [docetaxel, Docetaxel]
Recommended phase II dose of docetaxel in the combination ([2]; with pertuzumab 420 mg following a loading dose of 840 mg, intravenously every 3 weeks): 75 mg m^−2
Cl mean (range) [5, 10]: 36 (23–40) × 10^3 ml h m^−2
Vss mean (range) [5, 10]: 102 (64–154) × 10^4 ml m^−2
Cl mean (range) [5, 11]: 33 (28–39) × 10^3 ml h m^−2
Vss mean (range) [5, 11]: 79 (42–100) × 10^4 ml m^−2
Cl mean (range) [5, 12]: 24 (15–34) × 10^3 ml h m^−2
Vss mean (range) [5, 12]: 57 (20–110) × 10^4 ml m^−2
Cl mean (range) [5, 13]: 22 (13–31) × 10^3 ml h m^−2
Vss mean (range) [5, 13]: 41 (18–70) × 10^4 ml m^−2
Cl mean (range) [5, 14]: 22 (12–41) × 10^3 ml h m^−2
Vss mean (range) [5, 14]: 43 (16–76) × 10^4 ml m^−2
Cl mean (range) [5, 15]: 18 (12–28) × 10^3 ml h m^−2
Vss mean (range) [5, 15]: 25 (16–32) × 10^4 ml m^−2
Pharmacokinetic drug–drug interaction (Cmax, AUC and clearance of docetaxel alone vs in combination with pertuzumab) ([5]; cycle 1 alone vs cycle 2 combined): no drug–drug interaction
AUC(0-inf) [5, 16]: 1840 ng·h/mL
Cmax [5, 16]: 1640 ng/mL
half-life [5, 16]: 16.9 h
AUC(0-inf) [5, 17]: 3740 ng·h/mL
Cmax [5, 17]: 3130 ng/mL
half-life [5, 17]: 12.7 h
AUC(0-inf) [5, 18]: 5930 ng·h/mL
Cmax [5, 18]: 5450 ng/mL
half-life [5, 18]: 9.59 h
AUC(0-inf) [5, 10]: 1730 ng·h/mL
Cmax [5, 10]: 1700 ng/mL
half-life [5, 10]: 19.7 h
AUC(0-inf) [5, 12]: 3500 ng·h/mL
Cmax [5, 12]: 2720 ng/mL
half-life [5, 12]: 15.2 h
AUC(0-inf) [5, 14]: 5220 ng·h/mL
Cmax [5, 14]: 4700 ng/mL
half-life [5, 14]: 12.8 h
